# Reference: paper PMC8778187, “A New Oxygen Containing Pyclen-Type Ligand as a Manganese(II) Binder for MRI and ^52Mn PET Applications: Equilibrium, Kinetic, Relaxometric, Structural and Radiochemical Studies” (Molecules, 2022)
# Read-outs that look alike come from different tables or passages of the source. Marks after values point to notes of the source that are not given here.
# Assays:
# [1] = cited from earlier work; for relaxivity of complexes with q = 0: typical values; for r1p: Mn(II) complex, 0.49 T, pH = 7.4, ref 16 (PC2A ligands), 12 (DO2A ligands), 20 (H21,7-O2DO2A); for r1p / relaxivity upon binding to HSA: 25 °C; for relaxivity upon binding to HSA: Mn(II) bound to HSA
# [2] = cited from earlier work; for k2: ref 16 ([Mn(3,6-PC2A)]), 12 ([Mn(1,4-DO2A)]), 20 ([Mn(1,7-O2DO2A)]); for t1/2 (h) at pH = 7.4: extrapolated to pH = 7.4; for t1/2 (h) at pH = 7.4 / k1: ref 16 (PC2A complexes), 12, 13, 20; for k1: proton assisted dissociation
# [3] = cited from earlier work; for r1^298_20 MHz: 20 MHz, 298 K; for ΔH^‡: activation enthalpy of water exchange; for q: hydration number; for τR^298: rotational correlation time; for Δ^2: square of the zero-field splitting energy; for kex^298: water exchange rate; for τv^298: correlation time of ZFS modulation
# [4] = T = 25 °C, I = 0.15 M NaCl, ref 16 (PC2A ligands), 12 (DO2A ligands), cited from earlier work; for log K1^H / log K2^H / log K3^H / Σlog Κ2^H: 20 (H21,7-O2DO2A); for Σlog Κ2^H: log K1^H + log K2^H
# [5] = Ca^2+ complex; T = 25 °C, I = 0.15 M NaCl; ref 16 (PC2A ligands), 12 (DO2A ligands), 20 (H21,7-O2DO2A); cited from earlier work
# [6] = T = 25 °C, ref 16 (PC2A ligands), 12 (DO2A ligands), cited from earlier work; for log KMnL / log KMnHL: Mn^2+ complex, I = 0.15 M NaCl; for log KMnL / pMn: 20 (H21,7-O2DO2A); for pMn: pMn = −log(Mn(II)free), cMn^2+ = cligand = 1 × 10^−5 M, pH = 7.4
# [7] = Zn^2+ complex, T = 25 °C, I = 0.15 M NaCl, cited from earlier work; for log KMnLOH: DO2A values carry footnote f, ref 12 (DO2A ligands); for log KMnLOH / log KMnL: 20 (H21,7-O2DO2A); for log KMnL / log KMnHL: ref 16 (PC2A ligands), 12 (DO2A ligands)
# [8] = Cu^2+ complex; T = 25 °C, I = 0.15 M NaCl; ref 16 (PC2A ligands), 12 (DO2A ligands), 20 (H21,7-O2DO2A); cited from earlier work
# [9] = 1H relaxometry: r1p and r2p relaxivity of Mn(II) complexes; format: physicochemical; conditions: free Mn(II) ion, 1.41 T
# Protocol: The relaxivity of Mn(II) complexes is one of the most important parameters that directly correlates with its MRI efficacy. Relaxivity is defined as the longitudinal (r1p) and transverse (r2p) water proton relaxation rate enhancement, provided by 1.0 mM concentration of the paramagnetic species. The relaxivity (r1p and r2p) of the Mn(II) complexes were determined using relaxometers operating at 0.49 T and 1.41 T field strength, in a HEPES buffer (I = 0.15 M NaCl) at different temperatures from the slopes of plots 1/T1,2 vs. (Mn(II)) for 4 concentrations of Mn(II) (data shown in Supporting Information Figures S24 and S25), and they are compared in Table 4.
# The ^1H longitudinal (T1) and transverse (T2) relaxation times were measured by using Bruker Minispec MQ-20 and MQ-60 NMR analyzers (Bruker corporation, Billerica, MA, USA). The temperature of the sample holder was set at 25.0 or 37 (±0.2) °C, and controlled with a circulating water bath thermostat. The T1 values of the samples were determined by means of the inversion recovery method (180°–τ–90°), averaging 4–6 data points obtained at 12 different τ delay times, while T2 data were collected by using the Carl–Purcell–Meiboom–Gill (CPMG) spin-echo pulse sequence. Relaxivities were determined by published procedures (from the slopes of the plots of 1/T1,2 vs. (Mn(II)) for 4 concentrations of Mn(II)), in samples of 0.3–0.4 mL volume (data shown in Figures S24 and S25, Supplementary Information). The pH were set by either using a 0.05 M 4-(2-hydroxyethyl)-1-piperazine-ethanesulfonic acid (HEPES) buffer (pH = 7.4) or monitored (pH profiles) using a Metrohm 827 pH lab pH meter and a Metrohm 6.0234.100 combined electrode, in the pH range of 1.75–11.8.
# [10] = 17O NMR and NMRD measurements (water exchange, rotation, hydration number); format: physicochemical; conditions: ratio of kex^298 values
# Protocol: The relaxivity of paramagnetic metal complexes is governed by several parameters, including the water exchange rate (kex), the rotational correlation time (τR), and the number of inner sphere water molecules (q). In order to obtain information for these parameters, temperature dependent ^17O NMR measurements (9.4 T) and nuclear magnetic relaxation dispersion (NMRD) experiments were carried out in the frequency range of 0.01–80 MHz, at 3 different temperatures (25, 37, and 50 °C). Since numerous physico-chemical parameters determine the relaxivity, the independent assessment of some of the parameters is essential for the correct characterization. The variable temperature ^17O NMR measurements can deliver information about kex and τR via the transverse (1/T2) and the longitudinal (1/T1) ^17O relaxation rates, respectively, while the ^17O chemical shifts (Δω) depend on q. Therefore, the transverse and longitudinal relaxation rates and chemical shifts for a [Mn(3,9-OPC2A)] complex and a diamagnetic reference sample (HClO4, pH = 3.3) have been determined in the aqueous solution.
# The ^17O 1/T2r values and the NMRD data have been analyzed simultaneously by the Swift–Connick equations [31], as well as by the Solomon–Bloembergen–Morgan (SMB) and Freed models (see Supporting Information). In this calculation, the water exchange rate, kex^298; its activation enthalpy and entropy, ΔH^‡ and ΔS^‡; the rotational correlational time, τR; its activation energy, ER; the square of the zero-field splitting energy (ZFS), Δ^2; and the correlation time of its modulation, τv, have been determined and listed in Table 5, together with corresponding values of other complexes for comparison. As a result of the high number of parameters involved in the calculations, some have to be set to reasonable estimates based on literature data. Thus, the scalar coupling constant, A/ħO, is set to 33 × 10^6 rad s^−1, the distance between the metal ion, and the inner and outer sphere water protons are fixed to rMnH = 2.83 Å and aMnH = 3.6 Å, respectively; the diffusion coefficient and its activation energy are fixed to DMnH = 23 × 10^−10 m^2s^−1 and EMnH = 18 kJmol^−1, and the activation energy of the modulation of the zero-field-splitting, Ev to 1.0 kJmol^−1.
# The hydration number has been fixed to q = 1, based on the relaxivity value measured at 20 MHz (r1 = 3.09 mM^−1s^−1), and on the value, 0.97 ± 0.2, determined for q using the method proposed by Gale et al..
# A Bruker Avance 400 (9.4 T) spectrometer was used to measure the longitudinal (1/T1) and transverse (1/T2) relaxation rates, and the chemical shifts of an aqueous solution of the [Mn(3,9-OPC2A)] complex (pH = 7.4, 1.3 mM) and a diamagnetic reference (HClO4 acidified water, pH = 3.3) in the temperature range of 273–348 K. The temperature calibration was performed using literature protocols relying on ethylene glycol and methanol standards. The 1/T1 and 1/T2 values were determined by the inversion−recovery and the Carr−Purcell−Meiboom−Gill spin echo technique, respectively. To avoid susceptibility corrections of the chemical shifts, a glass sphere fitted into a 10 mm NMR tube was used to contain the samples. ^17O enriched water (10% H2^17O, CortecNet) was added to the solutions to improve sensitivity (circa 1% enrichment). Proton NMRD profiles of the [Mn(3,9-OPC2A)] complex (1.00 mM, pH = 7.4) were recorded in aqueous solution on a Stelar SMARTracer Fast Field Cycling relaxometer (0.01−10 MHz), and a Bruker WP80 NMR electromagnet adapted to variable field measurements (20−80 MHz) and controlled by a SMARTracer PC-NMR console (Stelar s.r.l., Mede, Italy). The temperature was monitored by a VTC91 temperature control unit and maintained by a gas flow. The temperature was determined by previous calibration with a Pt resistance temperature probe. […]
# [11] = fixed during the fitting procedure
smiles,measurement,setting,value
O=C([O-])CN1CCN(CC(=O)[O-])Cc2cccc(n2)CN(CC(=O)[O-])CC1.[Mn+2] [[Mn(PCTA)]^−],relaxivity of complexes with q = 0,[1],1.4 to 1.6 mM⁻¹ s⁻¹
"O.O=C([O-])CN1CCNCc2cccc(n2)CN(CC(=O)[O-])CC1.[Mn+2] [[Mn(3,6-PC2A)]]",k2,"[2]; T = 25 °C, I = 0.15 M NaCl",1.5 × 10^5 M^−2s^−1
same,t1/2 (h) at pH = 7.4,[2],63.2 h
same,k3,"[2]; metal assisted dissociation, T = 25 °C, I = 0.15 M NaCl",0.026 M⁻¹ s⁻¹
same,k1,"[2]; T = 25 °C, I = 0.15 M NaCl",70 M⁻¹ s⁻¹
same,KMnL x H,"[2]; protonation constant of the complex from kinetic fit, T = 25 °C, I = 0.15 M NaCl",1.15 × 10^3
same,KML x Cu,"[2]; stability constant of dinuclear intermediate, T = 25 °C, I = 0.15 M NaCl, unit assumed",16 M⁻¹
"O.O=C([O-])CN1CCOCCN(CC(=O)[O-])CCOCC1.[Mn+2] [[Mn(1,7-O2DO2A)]]",r1^298_20 MHz,[3],2.86 mM⁻¹ s⁻¹
same,ΔH^‡,[3],29.7 kJmol^−1
same,ΔS^‡,[3]; activation entropy of water exchange,2.8 JK^−1mol^−1
same,ER,[3]; [11],20 ^e kJmol^−1
same,q,[3]; [11],1
same,τR^298,[3],46.7 ps
same,Δ^2,[3],111 10^18s^−2
same,kex^298,[3],5.3 10^7s^−1
same,k2,"[2]; T = 25 °C, I = 0.15 M NaCl",3.0 × 10^6 M^−2s^−1
same,t1/2 (h) at pH = 7.4,[2],56.8 h
same,k1,"[2]; T = 25 °C, I = 0.15 M NaCl",85 M⁻¹ s⁻¹
"O=C(O)CN1CCNCCN(CC(=O)O)CCNCC1 [H21,7-DO2A]",log K1^H,[4],11.69
same,log K2^H,[4],9.75
same,log K3^H,[4],3.97
same,log K4^H,[4],2.68
same,Σlog Κ2^H,[4],21.44
same,log KMnL,[5],8.86
same,r1p,[1],1.50 mM⁻¹ s⁻¹
same,log KMnL,[6],14.64
same,log KMnHL,[6],4.40
same,pMn,[6],6.52
same,log KMnLOH,[7],1.78 ^f
same,log KMnL,[7],18.86
same,log KMnHL,[7],4.23
same,log KMnHL,[8],3.06
same,log KMnL,[8],24.24
"CN(C)C(=O)CN1CCNCCNCCN(CC(=O)N(C)C)CC1.O.[Mn+2] [[Mn(1,4-DO2AM^Me2)]^2+]",r1^298_20 MHz,[3],2.5 mM⁻¹ s⁻¹
same,ER,[3]; activation energy of rotation,19.1 kJmol^−1
same,ΔH^‡,[3],36.9 kJmol^−1
same,τv^298,[3],5.5 ps
same,q,[3]; [11],0.87
same,τR^298,[3],53 ps
same,Δ^2,[3],510 10^18s^−2
same,kex^298,[3],11.5 10^7s^−1
same,t1/2 (h) at pH = 7.4,[2],556 h
same,k1,"[2]; T = 25 °C, I = 0.15 M NaCl",8.7 M⁻¹ s⁻¹
[Mn+2] [Mn(II) ion],relaxivity upon binding to HSA,[1]; 0.47 T,97.2 mM⁻¹ s⁻¹
same,relaxivity upon binding to HSA,[1]; 1.41 T,76.35 mM⁻¹ s⁻¹
same,relaxivity in pure aqueous solution,[1]; Mn(II) ion,7.92 mM⁻¹ s⁻¹
same,r2p relaxivity,[9]; 25 °C,64.3 mM⁻¹ s⁻¹
same,r2p relaxivity,[9]; 37 °C,54.2 mM⁻¹ s⁻¹
O=C([O-])CN1CCNCCN(CC(=O)[O-])CCN(CC(=O)[O-])CC1.[Mn+2] [[Mn(DO3A)]^−],relaxivity of complexes with q = 0,[1],1.4 to 1.6 mM⁻¹ s⁻¹
"O=C(O)CN1CCNCCNCCN(CC(=O)O)CC1 [H21,4-DO2A]",log K1^H,[4],11.44
same,log K2^H,[4],9.51
same,log K3^H,[4],4.14
same,log K4^H,[4],1.55
same,Σlog Κ2^H,[4],20.95
same,log KMnL,[5],8.62
same,r1p,[1],2.10 mM⁻¹ s⁻¹
same,log KMnL,[6],15.68
same,log KMnHL,[6],4.15
same,pMn,[6],7.27
same,log KMnLOH,[7],1.65 ^f
same,log KMnL,[7],18.03
same,log KMnHL,[7],3.58
same,log KMnHL,[8],2.95
same,log KMnL,[8],24.43 ^g
"O=C([O-])CN1CCNCCNCCN(CC(=O)[O-])CC1.[Mn+2] [[Mn(1,4-DO2A)]]","water exchange faster than on [Mn(3,9-OPC2A)]",[10],20 times
same,r1^298_20 MHz,[3],2.1 mM⁻¹ s⁻¹
same,ER,[3]; activation energy of rotation,19.1 kJmol^−1
same,ΔH^‡,[3],29.4 kJmol^−1
same,τv^298,[3],4.4 ps
same,q,[3]; [11],0.87
same,τR^298,[3],46 ps
same,Δ^2,[3],481 10^18s^−2
same,kex^298,[3],113 10^7s^−1
same,k2,"[2]; T = 25 °C, I = 0.15 M NaCl",1.4 × 10^6 M^−2s^−1
same,t1/2 (h) at pH = 7.4,[2],48 h
same,k1,"[2]; T = 25 °C, I = 0.15 M NaCl",99 M⁻¹ s⁻¹
